The structures appear in SMILES notation. A value given as a limit tells only on which side of the number the result lay.

We go through four compounds from patent US10385024B2, “Compounds and methods for inhibiting NHE-mediated antiport in the treatment of disorders associated with fluid retention or salt overload and gastrointestinal tract disorders” (Ardelyx, Inc., priority 2012, dated 2019).

Series [1] concerns the target T1, Rat NHE-3 (Rattus norvegicus, UniProt P26433).
T1 construct: expressed in transfected cells; host or cells: Opossum kidney (OK) cells (ATCC), transfected by electroporation
Nature of the series: Cell-based assay of NHE-3 activity (rat NHE-3 prompt inhibition). The note with it: OK cells with rat NHE-3 gene, compound present during pH recovery; for IC50: read-out: Rat NHE3 pIC50 (prompt) (converted). In outline:
(§1)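 Opossum kidney cells electroporated with rat or human NHE-3, loaded with 5 μM BCECF-AM in NH4Cl-HEPES pH 7.4 for 30 min at RT, then acidified 10 min in Na+-free choline HEPES. Na+-dependent pH recovery rates from BCECF fluorescence, averaged over ≥2 replicates, gave pIC50.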

A further series is described as follows: Fecal recovery. Conditions: male, Sprague-Dawley, faeces; rat, 1 mg/kg oral gavage, collection time 48 h. It is filed as in vivo, Sprague Dawley rats. The protocol: Three male Sprague Dawley rats were administered 1 mg/kg test compound by oral gavage. Feces were collected from study animals from 0-48 or 0-72 hours after dosing, dried by lyophilization, and homogenized. Replicate aliquots of 40-60 mg each were subjected to extraction/protein precipitation with 7:1 acetonitrile:water and centrifuged. Supernatants were diluted 1:10 in 50:50 acetonitrile:water prior to analysis by LC-MS/MS. Compound concentrations, determined by interpolation from a standard calibration curve prepared in blank feces matrix, were converted to the percentage of dosed material recovered by taking into account the total collected fecal matter. The percent recovery for each rat was reported as the mean of the calculations from replicate samples. The overall percent recovery (Fecal Recovery [%]) was reported as the mean percent recovery from three rats. Accurate quality control sample recoveries were confirmed in each run, and extraction efficiency was periodically verified.

For another series, the target named is T2, human NHE-3 (Homo sapiens, UniProt P48764).
T2 construct: expressed in transfected cells; host or cells: Opossum kidney (OK) cells (ATCC), transfected by electroporation
T2 sequence (P48764 26-834): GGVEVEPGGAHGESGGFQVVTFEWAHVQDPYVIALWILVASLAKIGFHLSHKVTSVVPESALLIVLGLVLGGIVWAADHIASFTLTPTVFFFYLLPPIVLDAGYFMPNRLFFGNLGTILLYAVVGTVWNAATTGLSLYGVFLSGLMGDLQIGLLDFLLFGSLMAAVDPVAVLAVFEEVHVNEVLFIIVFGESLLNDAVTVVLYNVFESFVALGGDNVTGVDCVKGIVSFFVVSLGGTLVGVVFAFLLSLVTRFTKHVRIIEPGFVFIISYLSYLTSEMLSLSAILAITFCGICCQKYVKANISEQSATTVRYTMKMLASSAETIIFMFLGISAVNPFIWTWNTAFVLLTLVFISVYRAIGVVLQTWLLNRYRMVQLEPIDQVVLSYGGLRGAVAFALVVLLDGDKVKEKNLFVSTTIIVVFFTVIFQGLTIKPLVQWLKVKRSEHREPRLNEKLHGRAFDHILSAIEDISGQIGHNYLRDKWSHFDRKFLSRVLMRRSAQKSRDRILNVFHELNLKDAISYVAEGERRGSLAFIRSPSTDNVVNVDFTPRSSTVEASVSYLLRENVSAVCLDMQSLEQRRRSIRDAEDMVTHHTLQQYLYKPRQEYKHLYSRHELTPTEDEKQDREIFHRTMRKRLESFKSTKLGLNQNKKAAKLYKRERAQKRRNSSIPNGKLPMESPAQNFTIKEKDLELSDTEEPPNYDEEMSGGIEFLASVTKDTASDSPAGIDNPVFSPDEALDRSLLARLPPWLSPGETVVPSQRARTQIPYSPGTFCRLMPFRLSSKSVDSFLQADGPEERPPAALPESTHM
Briefly: Cell-based assay of NHE-3 activity (human NHE3 inhibition assay). The note with it: OK cells with human NHE-3 gene, BCECF pH dye, 0-30 μM test compound; for IC50: read-out: Human NHE3 pIC50 (converted). In outline:
as §1

Series [2] addresses T1, Rat NHE-3. Briefly: Cell-based assay of NHE-3 activity (persistent inhibition, after washout). The note with it: OK cells with rat NHE-3 gene, 60 min incubation, recovery initiated 40 min after compound washout; for IC50: read-out: Rat NHE3 pIC50 (persistent) (converted). In outline:
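OK cells transiently expressing rat NHE-3 were exposed to 0-30 μM compound in NaCl-HEPES pH 7.4 for 60 min, then washed free of drug before NH4Cl/BCECF-AM loading and acid-loading in Na+-free choline buffer. Na+-dependent pH recovery rates (mean of ≥2 replicates) gave pIC50.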

T1 sequence (P26433 29-831): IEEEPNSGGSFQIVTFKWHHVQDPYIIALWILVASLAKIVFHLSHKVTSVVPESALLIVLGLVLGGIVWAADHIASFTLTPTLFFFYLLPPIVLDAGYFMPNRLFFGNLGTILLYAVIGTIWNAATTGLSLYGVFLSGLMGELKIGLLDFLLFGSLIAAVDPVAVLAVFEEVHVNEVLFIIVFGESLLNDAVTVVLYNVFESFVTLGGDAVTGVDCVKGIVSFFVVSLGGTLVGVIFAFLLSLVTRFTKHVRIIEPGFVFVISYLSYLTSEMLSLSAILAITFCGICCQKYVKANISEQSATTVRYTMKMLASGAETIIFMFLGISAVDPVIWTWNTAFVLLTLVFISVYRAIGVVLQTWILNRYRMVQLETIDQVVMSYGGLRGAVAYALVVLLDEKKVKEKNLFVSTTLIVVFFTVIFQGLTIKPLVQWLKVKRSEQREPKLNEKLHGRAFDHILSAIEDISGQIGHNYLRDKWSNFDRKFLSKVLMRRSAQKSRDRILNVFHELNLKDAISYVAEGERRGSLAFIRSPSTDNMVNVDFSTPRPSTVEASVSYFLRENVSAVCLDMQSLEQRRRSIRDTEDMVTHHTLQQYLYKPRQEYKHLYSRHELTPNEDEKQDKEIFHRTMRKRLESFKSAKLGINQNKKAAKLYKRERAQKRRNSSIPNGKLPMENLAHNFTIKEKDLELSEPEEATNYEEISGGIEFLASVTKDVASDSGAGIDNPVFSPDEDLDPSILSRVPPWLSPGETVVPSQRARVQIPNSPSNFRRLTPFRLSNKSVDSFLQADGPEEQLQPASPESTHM

With `CN1Cc2c(Cl)cc(Cl)cc2[C@H](c2cccc(S(=O)(=O)NCCOCCOCCNC(=O)NCCCN(CCCNC(=O)NCCOCCOCCNS(=O)(=O)c3cccc([C@@H]4CN(C)Cc5c(Cl)cc(Cl)cc54)c3)CCCNC(=O)NCCOCCOCCNS(=O)(=O)c3cccc([C@@H]4CN(C)Cc5c(Cl)cc(Cl)cc54)c3)c2)C1` [Example 43, (S)—N,N′-(15-(1-(3-((S)-6,8-dichloro-2-methyl-1,2,3,4-tetrahydroisoquinolin-4-yl)phenylsulfonamido)-10-oxo-3,6-dioxa-9,11-diazatetradecan-14-yl)-10,20-dioxo-3,6,24,27-tetraoxa-9,11,15,19,21-pentaazanonacosane-1,29-diyl)bis(3-((S)-6,8-dichloro-2-methyl-1,2,3,4-tetrahydroisoquinolin-4-yl)benzenesulfonamide)], the IC50 is 100 to 10000 nM on Rat NHE-3 [1], less than 100 nM at human NHE-3 and less than 100 nM at Rat NHE-3 [2]. Moreover, the dose excreted in the series “Fecal recovery” was 53.8%.
For the compound `CN1Cc2c(Cl)cc(Cl)cc2[C@H](c2cccc(S(=O)(=O)NCCOCCOCCNC(=O)CCC(CCC(=O)NCCOCCOCCNS(=O)(=O)c3cccc([C@@H]4CN(C)Cc5c(Cl)cc(Cl)cc54)c3)(CCC(=O)NCCOCCOCCNS(=O)(=O)c3cccc([C@@H]4CN(C)Cc5c(Cl)cc(Cl)cc54)c3)NC(=O)NCC(=O)O)c2)C1` [Example 7, 18-(3-((S)-6,8-dichloro-2-methyl-1,2,3,4-tetrahydroisoquinolin-4-yl)phenylsulfonamido)-6,6-bis(3-(2-(2-(2-(3-((S)-6,8-dichloro-2-methyl-1,2,3,4-tetrahydroisoquinolin-4-yl)phenylsulfonamido)ethoxy)ethoxy)ethylamino)-3-oxopropyl)-4,9-dioxo-13,16-dioxa-3,5,10-triazaoctadecan-1-oic acid], the IC50 at Rat NHE-3 [1], on human NHE-3 and at Rat NHE-3 [2] was less than 100 nM throughout. This compound had a dose excreted in “Fecal recovery” of 83.2%.
On to `CN1Cc2c(Cl)cc(Cl)cc2[C@H](c2cccc(S(=O)(=O)NCCOCCOCCN(C)C(=O)NCCCN(CCCNC(=O)N(C)CCOCCOCCNS(=O)(=O)c3cccc([C@@H]4CN(C)Cc5c(Cl)cc(Cl)cc54)c3)CCCNC(=O)N(C)CCOCCOCCNS(=O)(=O)c3cccc([C@@H]4CN(C)Cc5c(Cl)cc(Cl)cc54)c3)c2)C1` [Example 55], for which the “Rat NHE3 pIC50 (prompt)” value at Rat NHE-3 [1] is on record as “B (B NHE3 pIC50 5-7)”. The same compound yielded a dose excreted in the series “Fecal recovery” of 64.6%. The “Human NHE3 pIC50” value on human NHE-3 is listed as “C (C NHE3 pIC50 > 7)”. For the same compound, the “Rat NHE3 pIC50 (persistent)” value at Rat NHE-3 [2] is “C (C NHE3 pIC50 > 7)”.
For the compound `CN1Cc2c(Cl)cc(Cl)cc2[C@H](c2cccc(S(=O)(=O)NCCOCCOCCNC(=O)CCC(CCC(=O)NCCOCCOCCNS(=O)(=O)c3cccc([C@@H]4CN(C)Cc5c(Cl)cc(Cl)cc54)c3)(CCC(=O)NCCOCCOCCNS(=O)(=O)c3cccc([C@@H]4CN(C)Cc5c(Cl)cc(Cl)cc54)c3)N(C)C)c2)C1` [Example 4, N^1,N^7-bis(2-(2-(2-(3-((S)-6,8-dichloro-2-methyl-1,2,3,4-tetrahydroisoquinolin-4-yl)phenylsulfonamido)ethoxy)ethoxy)ethyl)-4-(3-(2-(2-(2-(3-((S)-6,8-dichloro-2-methyl-1,2,3,4-tetrahydroisoquinolin-4-yl)phenylsulfonamido)ethoxy)ethoxy)ethylamino)-3-oxopropyl)-4-(dimethylamino)heptanediamide], the IC50 on Rat NHE-3 [1], on human NHE-3 and at Rat NHE-3 [2] was less than 100 nM in each case.
